Values after ≈ are worked out from the molar mass of the structure shown. Read-outs that look alike come from different tables or passages of the source.
Assays:
MRC-5 fibroblasts = experiment: In vitro cytotoxicity assay on MRC-5 fibroblasts; assay type: cell-based; conditions: for SI (selectivity index): IC50 (MRC-5)/MIC (H37Rv)
Experimental: (§1) The cytotoxicity of compounds on MRC-5 fibroblasts was performed exactly as previously reported.

[1] = test system: M. tuberculosis H37Rv (ATCC 27294); experiment: In vitro antituberculosis assay (MIC, broth microdilution); assay type: cell-based, Mycobacterium tuberculosis; conditions: for MIC: read-out: MIC (H37Rv)
MtbTMPK [2] = target: T1, MtbTMPK (Mycobacterium tuberculosis, UniProt P9WKE1); parameters: method as in PMID 29510037, PMID 27614917
MtbTMPK [3] = target: T1, MtbTMPK; experiment: MtbTMPK enzymatic assay (spectrophotometric coupled assay); assay type: biochemical; conditions: for MtbTMPK inhibitory potency, in words: qualitative statement, compared with 3
Experimental: The enzymatic assay was performed as previously reported on the recombinant purified MtbTMPK [14, 33]. As described by Blondin et al., compounds were evaluated by a serial dilution method using the spectrophotometric assay at fixed concentrations of adenosine triphosphate (ATP) (0.5 mM) and thymidine monophosphate (dTMP; 0.05 mM). The reaction medium includes 50-mM Tris-HCl; pH 7.4; 50-mM KCl; 2-mM MgCl2; 0.2-mM nicotinamide adenine dinucleotide (NADH); 1-mM phosphoenol pyruvate and 2 units each of coupling enzymes (lactate dehydrogenase, pyruvate kinase and nucleoside diphosphate kinase). From the experimental data, the IC50 value was calculated using KaleidaGraph 4.5.3.

[4] = test system: M. tuberculosis H37Rv (ATCC 27294); conditions: previously reported values; cited from earlier work
[5] = In vitro cytotoxicity assay on MRC-5 fibroblasts; assay type: cell-based; conditions: human
Experimental: as §1

[6] = ATP 0.5 mM, dTMP 0.05 mM, mean ± SD of at least two measurements, NI: no inhibition at a concentration of 0.2 mM, read-out: IC50 (MtbTMPK)
[7] = cytotoxicity against MRC-5 fibroblasts, read-out: IC50 (MRC-5)
[8] = Mycobacterium tuberculosis, minimum concentration required to inhibit >99% growth of M. tuberculosis H37Rv in liquid culture, 7–14 days

T1 sequence (P9WKE1 whole entry, looked up): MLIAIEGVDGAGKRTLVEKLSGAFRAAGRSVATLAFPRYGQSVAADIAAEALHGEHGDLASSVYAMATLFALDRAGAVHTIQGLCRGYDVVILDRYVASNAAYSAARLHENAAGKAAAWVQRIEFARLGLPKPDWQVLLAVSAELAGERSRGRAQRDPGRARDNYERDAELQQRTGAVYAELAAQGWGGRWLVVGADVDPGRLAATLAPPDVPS

Row | Molecule | IC50 (MtbTMPK [3]; [6]) | IC50 [5, 7] | SI (selectivity index) (MRC-5 fibroblasts) | MIC ([1]; Mycobacterium tuberculosis) | MtbTMPK inhibitory potency, in words (MtbTMPK [3]) | further results
1 | 1-(1-(3-((3,4-Dichlorobenzyl)oxy)phenethyl)piperidin-4-yl)-5-methylpyrimidine-2,4(1H,3H)-dione [Compound 21p] |  |  |  |  |  | IC50 (MRC-5 fibroblasts; cytotoxicity against MRC-5 fibroblasts): 4.22 µM; MIC ([1]; minimum concentration required to inhibit >99% growth of M. tuberculosis H37Rv in liquid culture, 7–14 days): 12.5 µM
2 | Cc1cn(C2CCCN(Cc3cccc(Oc4ccccc4)c3)C2)c(=O)[nH]c1=O (centres unmarked) [Compound 1] |  |  |  |  |  | IC50 (MtbTMPK [2]; read-out: IC50 (MtbTMPK), reported; previously reported values; cited from earlier work): 21 µM
3 | Cc1cn(C2CCN(CCc3cccc(Oc4ccccc4)c3)CC2)c(=O)[nH]c1=O [Compound 3, reference compound] | 17 ± 2 µM | > 64 µM | >1.73 | 37 µM (≈ 15 µg/mL) |  | IC50 (MtbTMPK [2]; previously reported values; read-out: IC50 (MtbTMPK), reported; cited from earlier work): 11 µM; MIC (H37Rv), reported [4]: 37 µM (≈ 15 µg/mL)
4 | Cc1cn(C2CCN(CCc3ccccc3)CC2)c(=O)[nH]c1=O [Compound 21a, 5-Methyl-1-(1-phenethylpiperidin-4-yl)pyrimidine-2,4(1H,3H)-dione] | 680 ± 90 µM | > 64 µM |  | > 50 µM |  | loss/decrease in MtbTMPK inhibitory potency relative to 3 (MtbTMPK [3]; compared with compound 3): 40 fold
5 | Cc1cn(C2CCN(CCc3ccc(-c4ccccc4)cc3)CC2)c(=O)[nH]c1=O [Compound 21b, 1-(1-(2-([1,1’-Biphenyl]-4-yl)ethyl)piperidin-4-yl)-5-methylpyrimidine-2,4(1H,3H)-dione] | > 200 µM | 22.2 µM |  | > 50 µM | complete loss of enzyme inhibitory potency | 
6 | Cc1cn(C2CCN(CCc3ccccc3Oc3ccccc3)CC2)c(=O)[nH]c1=O [Compound 21c, 5-Methyl-1-(1-(2-phenoxyphenethyl)piperidin-4-yl)pyrimidine-2,4(1H,3H)-dione] | 100 ± 15 µM | 26.8 µM | 0.54 | 50 µM (≈ 20.3 µg/mL) | negative effect on the inhibitory activity | 
7 | Cc1cn(C2CCN(CCc3ccc(Oc4ccccc4)cc3)CC2)c(=O)[nH]c1=O [Compound 21e, 5-Methyl-1-(1-(4-phenoxyphenethyl)piperidin-4-yl)pyrimidine-2,4(1H,3H)-dione] | 160 ± 22 µM | > 64 µM |  | > 50 µM | negative effect on the inhibitory activity | 
8 | Cc1ccc(Oc2cccc(CCN3CCC(n4cc(C)c(=O)[nH]c4=O)CC3)c2)cc1 [Compound 21f, 5-Methyl-1-(1-(3-(p-tolyloxy)phenethyl)piperidin-4-yl)pyrimidine-2,4(1H,3H)-dione] | 49 ± 7 µM | 8.42 µM | 0.44 | 19 µM (≈ 7.97 µg/mL) |  | 
9 | Cc1cn(C2CCN(CCc3cccc(Oc4ccc(Cl)c(Cl)c4)c3)CC2)c(=O)[nH]c1=O [Compound 21g, 1-(1-(3-(3,4-Dichlorophenoxy)phenethyl)piperidin-4-yl)-5-methylpyrimidine-2,4(1H,3H)-dione] | 45 ± 2 µM | 5.66 µM | 0.30 | 19 µM (≈ 9.01 µg/mL) |  | 
10 | Cc1cn(C2CCN(CCc3cccc(Oc4ccc(Cl)cc4)c3)CC2)c(=O)[nH]c1=O [Compound 21h, 1-(1-(3-(4-Chlorophenoxy)phenethyl)piperidin-4-yl)-5-methylpyrimidine-2,4(1H,3H)-dione] | 49 ± 8 µM | 5.81 µM | 0.46 | 12.5 µM (≈ 5.5 µg/mL) |  | increase in IC50-value (MtbTMPK) relative to 21j (MtbTMPK [3]; compared with isomer 21j): 10 fold
11 | COc1ccc(Oc2cccc(CCN3CCC(n4cc(C)c(=O)[nH]c4=O)CC3)c2)cc1 [Compound 21i, 1-(1-(3-(4-Methoxyphenoxy)phenethyl)piperidin-4-yl)-5-methylpyrimidine-2,4(1H,3H)-dione] | 34 ± 5 µM | > 64 µM | >2.56 | 25 µM (≈ 10.9 µg/mL) |  | 
12 | Cc1cn(C2CCN(CCc3cccc(Oc4cccc(Cl)c4)c3)CC2)c(=O)[nH]c1=O [Compound 21j, 1-(1-(3-(3-Chlorophenoxy)phenethyl)piperidin-4-yl)-5-methylpyrimidine-2,4(1H,3H)-dione] |  | 25.2 µM | 1.33 | 19 µM (≈ 8.36 µg/mL) | significant improvement in the inhibitory potency | improvement of MtbTMPK inhibitory potency relative to 3 (MtbTMPK [3]; compared with compound 3): three; improvement of H37Rv growth inhibitory activity relative to 3 ([1]; compared with compound 3): two
13 | Cc1cn(C2CCN(CCc3cccc(Oc4ccc(C#N)cc4)c3)CC2)c(=O)[nH]c1=O [Compound 21k, 4-(3-(2-(4-(5-Methyl-2,4-dioxo-3,4-dihydropyrimidin-1(2H)-yl)piperidin-1-yl)ethyl)phenoxy)benzonitrile] | 126 ± 10 µM | > 64 µM |  | ≥ 50 µM | significant drop in MtbTMPK inhibitory potency | 
14 | Cc1cn(C2CCN(CCc3cccc(Oc4ccc([N+](=O)[O-])cc4)c3)CC2)c(=O)[nH]c1=O [Compound 21l, 5-Methyl-1-(1-(3-(4-nitrophenoxy)phenethyl)piperidin-4-yl)pyrimidine-2,4(1H,3H)-dione] | 91 ± 10 µM | > 64 µM | >1.73 | 37 µM (≈ 16.7 µg/mL) | significant drop in MtbTMPK inhibitory potency | 
15 | Cc1cn(C2CCN(CCc3cccc(Oc4ccc(C(F)(F)F)cc4)c3)CC2)c(=O)[nH]c1=O [Compound 21m, 5-Methyl-1-(1-(3-(4-(trifluoromethyl)phenoxy)phenethyl)piperidin-4-yl)pyrimidine-2,4(1H,3H)-dione] | 135 ± 22 µM | > 64 µM | >1.73 | 37 µM (≈ 17.5 µg/mL) | significant drop in MtbTMPK inhibitory potency | 
16 | Cc1cn(C2CCN(CCc3cccc(OCc4ccccc4Cl)c3)CC2)c(=O)[nH]c1=O [Compound 21o, 1-(1-(3-((2-Chlorobenzyl)oxy)phenethyl)piperidin-4-yl)-5-methylpyrimidine-2,4(1H,3H)-dione] | 70 ± 9 µM | 7.08 µM | 0.37 | 19 µM (≈ 8.63 µg/mL) |  | 
17 | Cc1cn(C2CCN(CCc3cccc(OCc4cccc(Cl)c4)c3)CC2)c(=O)[nH]c1=O [Compound 21q, 1-(1-(3-((3-Chlorobenzyl)oxy)phenethyl)piperidin-4-yl)-5-methylpyrimidine-2,4(1H,3H)-dione] | 44 ± 2 µM | 19.8 µM | 0.79 | 25 µM (≈ 11.3 µg/mL) |  | 
18 | Cc1cn(C2CCCN(CCc3cccc(Oc4ccccc4)c3)C2)c(=O)[nH]c1=O (centres unmarked) [Compound 23, 5-Methyl-1-(1-(3-phenoxyphenethyl)piperidin-3-yl)pyrimidine-2,4(1H,3H)-dione] |  |  |  |  |  | IC50 (MtbTMPK [3]): 192 ± 53 µM; loss/decrease in MtbTMPK inhibitory potency relative to 3 (MtbTMPK [3]; compared with compound 3): > 10 fold; IC50 [5]: 21.8 µM; MIC [1, 8]: > 50 µM
19 | Cc1cn(C2CCN(C(=O)Cc3cccc(Oc4ccccc4)c3)CC2)c(=O)[nH]c1=O [Compound 26, 5-Methyl-1-(1-(2-(3-phenoxyphenyl)acetyl)piperidin-4-yl)pyrimidine-2,4(1H,3H)-dione] |  |  |  |  | weak enzyme inhibition | IC50 (MtbTMPK [3]): 230 ± 63 µM; IC50 [5]: > 64 µM; MIC [1, 8]: > 50 µM
20 | c1ccc(Oc2cccc(CCN3CCC(c4ccccc4)CC3)c2)cc1 [Compound 27, 1-(3-Phenoxyphenethyl)-4-phenylpiperidine] |  |  | 1.29 |  | complete loss of the inhibitory potency | IC50 (MtbTMPK [3]; read-out: IC50 (MtbTMPK), ATP 0.5 mM, dTMP 0.05 mM, mean ± SD of at least two measurements, NI: no inhibition at a concentration of 0.2 mM): > 200 µM; IC50 [5]: 8.06 µM; cytotoxicity (MRC-5), in words (MRC-5 fibroblasts; qualitative statement, relative to antimycobacterial activity): equipotent cytotoxicity; MIC [1, 8]: 6.25 µM (≈ 2.23 µg/mL); antimycobacterial activity (H37Rv), in words ([1]; qualitative statement): potent antimycobacterial activity
